According to US20040132970A1, “Dermaseptin-derived peptides and their use in delivery systems” (priority 2002, published 2004):
“Also recorded” adds a separate entry of the source. Ends that are not written are not given here.

How the values were obtained:
[1] = system: HeLa cells; experiment: Penetration of Lissamine Rhodamine-labeled synthetic peptides into intact cultured cells, fluorescence microscopy; type: cell-based; settings: for co-penetration of free fluorophore LR into intact HeLa cells: mixture of unlabeled S413 and free LR, versus LR alone; for cell penetration and intracellular localization in intact HeLa cells (FIG. 1): 37° C., 5 μM; for cell penetration and intracellular localization in intact HeLa cells (FIG. 1) / cell penetration and nuclear accumulation in intact HeLa cells (FIG. 3): 30 minutes; for cell penetration and nuclear accumulation in intact HeLa cells (FIG. 3): 10 μM Rev at 37° C., 2 μM of RR-S413
Protocol: HeLa cells (3×10^4 per well) were cultured on eight-well Lab-Teck cover slips (Nunc Inc.) or on 10-mm cover slips to sub confluent density. Following the removal of the culture medium, the cells were washed three times with PBS and then exposed to different concentrations of the Lissamine Rhodamine-labeled peptides at 37° C. or at 4° C. At the end of the incubation period the cells were washed three times in PBS and fixed in 4% (v/v) formaldehyde dissolved in PBS. Fixed cells were examined by fluorescence microscopy (Zeiss Germany, a 40× objective; Apoplan) or by confocal microscopy using an MRC 1024 confocal imaging system (Bio-Rad). The microscope (Axiovert 135M; Zeiss Germany, a 63× objective; Apoplan; NA 1.4) was equipped with an argon ion laser for Rhodamine excitation at 514 nm (emission 580).
Following fixation, the various samples were examined by fluorescence microscopy.
Synthetic peptides bearing Tat and Rev ARM sequences were synthesized and fluorescently labeled as described. […]

[2] = system: permeabilized HeLa cells; experiment: Nuclear uptake in digitonin-permeabilized cells, fluorescence microscopy; type: cell-based; set-up: key to Nuclear Import of PV-S413 / Nuclear uptake: +: Most of the nuclei in the microscopic fields are highly fluorescent; −: No fluorescence in the nuclei; +/−: Most of the nuclei are very weakly fluorescent
Protocol: FIGS. 2a-d: Nuclear import of PV-S413 in permeabilized HeLa cells: fluorescence microscopy observations. All experimental conditions were as described in Experimental Procedures and in legend to Table 3. Digitonin permeabilized HeLa cells were incubated in the presence of reticulocyte extract at 30° C. for 1 hour with 1 μM of the following:
HeLa cells were cultivated on 10 mm cover slips to sub confluent density and then permeabilized with digitonin as described previously [Friedler, A. et al. (1998) Biochemistry 37, 5616-5622]. The cells were incubated with the peptides and nuclear import was followed by fluorescence microscopy as described [Friedler, A. et al. (1998) id ibid.].
Experimental conditions of nuclear import in digitonin-permeabilized cells (complete system) were as described. PV-S413 was used at 1 mM and all incubations were performed at 37° C. in the presence of reticulocyte lysate, unless otherwise indicated. Additions: GTPγS (20 mM) and the following unlabeled peptides SV40 T-Ag NLS, S413 and PV-S413 at a ratio of 1:100 (mol/mol).
Unlabeled peptides RR-S413, SV40 T-Ag-NLS, Rev and Tat ARM were added at a peptide ratio of 1:100 (mole/mole).

[3] = system: HeLa cells; experiment: Microinjection of the peptides into HeLa cells, nuclear import; type: cell-based; settings: 1 μM, 2 hours after incubation at 37° C.
Protocol: FIGS. 4a-d: Nuclear import of S413 and RR-S413 in microinjected cells. HeLa cells were microinjected with the fluorescently labeled peptides S413 and RR-S413 (1 μM). The injection mixture also included fluorescently labeled BSA as an injection control (data not shown). Photos were taken 2 hours after incubation at 37° C.
HeLa cells were microinjected with either S413 or with RR-S413 using the CompInject AIS2 automated microinjection system (Cell Biology Trading, Hamburg, Germany) as described previously [Neumann, M. et al. (2001) J. Cell Sci. 114, 1717-29] using a microinjection method developed by Graessmann et al., as described [Graessmann, M. and Graessmann, A. (1983) Methods Enzymol. 101, 482-492].

[4] = system: cultured cells; experiment: Effect of the peptides on cell viability (Trypan Blue); type: cell-based; settings: for toxicity to cells, Trypan Blue test: at the concentrations used, 37° C., 30 minutes; for toxicity to the cells (cell viability): at concentrations up to about 15 μM
Protocol: Following incubation at 37° C. for 30 minutes 100 ml, Trypan Blue solution was added (0.4% in HBSS buffer; Sigma) and HBSS buffer (5:3) and viable cells counted after 5 minutes of continuous stirring. Cell death was not greater than 20%.

[5] = system: erythrocytes; settings: cited from earlier work

With `CCN(CC)c1ccc2c(-c3ccc(S(=O)(=O)O)cc3S(=O)(=O)[O-])c3ccc(=[N+](CC)CC)cc-3oc2c1` [L-Rhodamine, Lissamine Rhodamine, reference compound] the “co-penetration of free fluorophore LR into intact HeLa cells” value [1] was “did not occur”.
In the case of ALWKTLLKKVLKA-NH2 [Peptide S413], the “penetration into nuclei of digitonin permeabilized HeLa cells (FIG. 2)” value ([2]; 1 μM, reticulocyte extract, 30° C., 1 hour) is reported as “did not penetrate”, the “time of incubation within which penetration into cultured HeLa cells occurs” value ([1]; 1 μM of the peptide, either at 37° C. or at 4° C.) is reported as at most 5 min and the “cell penetration and intracellular localization in intact HeLa cells (FIG. 1)” value [1] is reported as “accumulated within the cells' cytoplasm and not in the cells' nuclei”. The “nuclear localization after long incubation” value ([1]; 24 hours after incubation at 37° C.) was “very little, if any, nuclear localization”, the “penetration into intact cells in ATP depleted cells” value ([1]; ATP depleted cells) was “occurred” and the “co-penetration of free fluorophore LR into intact HeLa cells” value [1] was “a few intracellular fluorescent dots”. For the same molecule, the “localization following microinjection into intact HeLa cells (FIG. 4)” value [3] was “retained in the cytoplasm; also recorded: remained in the cytoplasm” and the “toxicity to cells, Trypan Blue test” value [4] was “non-toxic”.
In the case of “ALWKTLLKKVLKAPKKKRKV-NH2 [Peptide S413-PV]”, the “toxicity to cells, Trypan Blue test” value [4] is reported as “not toxic”.
In the case of “ALWMTLLKKVLKAAAKAALNAVLVGANA-COOH (ALWMTLLKKVLKAAAKAALNAVLVGANA-OH) [Peptide S4, reference compound]”, the toxicity to erythrocytes [5] is listed as “highly toxic”.
In the case of “GRKKRRQRRRPPQC-NH2 [Tat-ARM, reference compound]”, the “toxicity to the cells (cell viability)” value [4] is reported as “not toxic”.
With PKKKRKVALWKTLLKKVLKA-NH2 [PV-S413] the “ATP dependence of nuclear import in permeabilized HeLa cells” value [2] was “ATP-dependent”, the “nuclear import in permeabilized HeLa cells at 4° C.” value ([2]; 4° C.) was “did not occur” and the “Nuclear Import of PV-S413” value ([2]; (i) Complete System: 1 mM peptide, 37° C., reticulocyte lysate) was “+”. For the same molecule, the “Nuclear Import of PV-S413” value ([2]; (ii) Hexokinase (ATP depleted system)) was “−”, the “Nuclear Import of PV-S413” value ([2]; (iii) As (i), in the absence of reticulocyte extract) was “−” and the “Nuclear Import of PV-S413” value ([2]; (iv) As (i) at 4° C.) was “−”. For the same molecule, the “Nuclear Import of PV-S413” value ([2]; (v) As (i) + GTPγS (20 mM)) was “−”, the “Nuclear Import of PV-S413” value ([2]; (vi) As (i) + unlabeled SV40-NLS, 1:100 (mol/mol)) was “+/−” and the “Nuclear Import of PV-S413” value ([2]; (vii) As (i) + unlabeled S413, 1:100 (mol/mol)) was “+”. For the same molecule, the “Nuclear Import of PV-S413” value ([2]; (viii) As (i) + unlabeled PV-S413, 1:100 (mol/mol)) was “+/−”, the “effect of GTPγS, WGA and excess of free unlabeled SV40 T-Ag-NLS peptide on nuclear import” value ([2]; permeabilized HeLa cells) was “inhibited” and the “intracellular localization in intact HeLa cells at 4° C.” value ([1]; 4° C.) was “retained in the cytoplasm”. The “cell penetration and intracellular localization in intact HeLa cells (FIG. 1)” value [1] was “cell penetration and accumulation within the cells' nuclei” and the “toxicity to cells, Trypan Blue test” value [4] was “not toxic”.
For RQARRNRRRALWKTLLKKVLKA-NH2 [RR-S413], the Nuclear uptake ([2]; ATP depleted cells) was “−”, the Nuclear uptake ([2]; In the absence of cytosolic factors) was “+” and the Nuclear uptake ([2]; In the presence of cytosolic factors) was “+/−”. For the same molecule, the Nuclear uptake ([2]; In the presence of unlabeled RR-S413, 1:100 (mole/mole)) was “+/−”, the Nuclear uptake ([2]; In the presence of unlabeled Rev-ARM, 1:100 (mole/mole)) was “−” and the Nuclear uptake ([2]; In the presence of unlabeled SV40 T-Ag NLS, 1:100 (mole/mole)) was “+”. For the same molecule, the Nuclear uptake ([2]; In the presence of unlabeled Tat-ARM, 1:100 (mole/mole)) was “+/−”, the Nuclear uptake ([2]; Incubation in 4° C.) was “−” and the “nuclear import in digitonin permeabilized HeLa cells” value ([2]; no addition of cytosolic extract required) was “Nuclear import was also observed”. The “cell penetration and nuclear accumulation in intact HeLa cells (FIG. 3)” value [1] was “readily penetrated into intact HeLa cells and accumulated—within a short period of time—within the nuclei of these cells”, the “localization following microinjection into intact HeLa cells (FIG. 4)” value [3] was “accumulated within the intranuclear space; also recorded: accumulated in the nuclei” and the “toxicity to the cells (cell viability)” value [4] was “not toxic”.
With “RQARRNRRRC-NH2 [Rev-ARM, reference compound]” the “cell penetration and nuclear accumulation in intact HeLa cells (FIG. 3)” value [1] was “cell permeable” and the “toxicity to the cells (cell viability)” value [4] was “not toxic”.
For VKRKKKPALWKTLLKKVLKA-NH2 [rPV-S413], the “nuclei accumulation in permeabilized HeLa cells” value ([2]; both in the presence and in the absence of the cytosolic extract) was “either did not accumulate or showed poor nuclei accumulation” and the “cell penetration and intracellular localization in intact HeLa cells (FIG. 1)” value [1] was “very little, if any, accumulation within the cells' nuclei/nucleoli”.
